Data reported in US9169241B2, “Quinolinyloxyphenylsulfonamides” (Max-Planck-Gesellschaft Zur Forderung der Wissenschaften …, priority 2009, dated 2015).
Where two headings read alike, the source gives them in different places.

Key:
indicated cell line = assay: Wound healing migration assay (Table IV); type: cell-based; conditions: compounds at 12.5, 6.25, 3.125 μM, 48 h-72 h
Procedure, shortened: (§1)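 Cells seeded at 150000/24 well, grown to monolayer overnight, scratched with a pipette tip, then treated with compound at 12.5, 6.25 or 3.125 μM versus DMSO. Stopped by crystal violet fixation at 48-72 h once control wounds closed; IC50 taken as 50% wound size between t0 and t48 or t72.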

Hs578T [1] = assay: Cell vitality assay (ATP assay, CellTiter-Glo); type: cell-based; conditions: Homo sapiens, Hs-578T; HS578T cell line, 72 h; Table Ib; read-out: IC50 ATP-Assay HS578T after 72 h
Procedure, shortened: (§2)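 Steps: seed 1000 cells per well; add compound (0.195–12.5 μM, 7 points) or DMSO; incubate 72 h; equilibrate to room temperature ~30 min; add reagent, shake 2 min, stand 10 min; read luminescence. IC50 relative to DMSO-control ATP.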

SF126 [2] = assay: Cell vitality assay (ATP assay, CellTiter-Glo); type: cell-based; conditions: Homo sapiens, SF-126; SF126, 72 h; Table IIa; read-out: IC50 ATP-Assay after 72 h SF126
Procedure, shortened: as §2

U118 [3] = assay: Cell vitality assay (ATP assay, CellTiter-Glo); type: cell-based; conditions: U118, 72 h; Table IIa; read-out: IC50 ATP-Assay after 72 h U118
Procedure, shortened: as §2

Hs578T [4] = assay: Matrigel outgrowth assay/branching assay; type: cell-based; conditions: Homo sapiens, Hs-578T; HS578T cell line; Table Ib; read-out: Total branching inhibition in Matrigel HS578T
Procedure, shortened: (§3)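 Cells (5000/well) were seeded onto polymerized 3 mg/ml Matrigel with compound at 3.125, 1.56 or 0.78 μM, or DMSO. Imaging by inverted microscopy at 48, 72 and 96 h scored invasive branching. Only concentrations giving total branching inhibition counted as positive.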

A172 = assay: Matrigel outgrowth assay/branching assay; type: cell-based; conditions: Homo sapiens, A 172, Table Vb, read-out: Total branching inhibition in Matrigel A172
Procedure, shortened: as §3

SF126 [5] = assay: Matrigel outgrowth assay/branching assay; type: cell-based; conditions: Homo sapiens, SF-126, Table Vb, read-out: Total branching inhibition in Matrigel SF126
Procedure, shortened: as §3

U118 [6] = assay: Matrigel outgrowth assay/branching assay; type: cell-based; conditions: Table Vb, read-out: Total branching inhibition in Matrigel U118
Procedure, shortened: as §3

Hs578T [7] = assay: Wound healing migration assay; type: cell-based; conditions: Homo sapiens, Hs-578T; HS578T cell line; Table Ib
Procedure, shortened: as §1

[8] = Homo sapiens, A 172, A172 cells, read-out: IC50 Wound healing Assay A172
[9] = Homo sapiens, SF-126, SF126 cells, read-out: IC50 Wound healing Assay SF126
[10] = U118 cells, read-out: IC50 Wound healing Assay U118

COc1cc2c(Oc3ccc(NS(=O)(=O)c4c(Cl)cccc4Cl)cc3F)ccnc2cc1OCCCN1CCCCC1 [Example 6, 2,6-Dichloro-N-{3-fluoro-4-[6-methoxy-7-(3-piperidin-1-yl-propoxy)-quinolin-4-yloxy]-phenyl}-benzenesulfonamide]
IC50 (indicated cell line; [8]): ≤ 12.5 µM
IC50 (indicated cell line; [9]): ≤ 12.5 µM
IC50 (indicated cell line; [10]): ≤ 12.5 µM
IC50 (Hs578T [1]): ≤ 12.5 µM
IC50 (SF126 [2]): ≤ 12.5 µM
IC50 (U118 [3]): ≤ 12.5 µM
melting point: 206 to 208 °C
IC50 (Hs578T [4]): ≤ 10 µM
IC100 (A172): > 12.5 µM
IC100 (SF126 [5]): ≤ 12.5 µM
IC100 (U118 [6]): ≤ 12.5 µM
IC50 (Hs578T [7]): ≤ 12.5 µM

COc1cc2c(Oc3ccc(NS(=O)(=O)c4c(F)cccc4F)cc3F)ccnc2cc1OCCCN1CCCCC1 [Example 11, 2,6-Difluoro-N-{3-fluoro-4-[6-methoxy-7-(3-piperidin-1-yl-propoxy)-quinolin-4-yloxy]-phenyl}-benzenesulfonamide]
IC50 (indicated cell line; [8]): 12.5 to 50 µM
IC50 (indicated cell line; [9]): ≤ 12.5 µM
IC50 (indicated cell line; [10]): 12.5 to 50 µM
IC50 (Hs578T [1]): ≤ 12.5 µM
IC50 (SF126 [2]): 12.5 to 50 µM
IC50 (U118 [3]): 12.5 to 50 µM
melting point: 242 to 244 °C
IC50 (Hs578T [4]): 10 to 25 µM
IC100 (A172): > 12.5 µM
IC100 (SF126 [5]): > 12.5 µM
IC100 (U118 [6]): > 12.5 µM
IC50 (Hs578T [7]): ≤ 12.5 µM

COc1cc2c(Oc3ccc(NS(=O)(=O)c4ccccc4[N+](=O)[O-])cc3F)ccnc2cc1OCCCN1CCCC(C)C1 (stereo not drawn) [Example 40, N-(3-Fluoro-4-{6-methoxy-7-[3-(3-methyl-piperidin-1-yl)-propoxy]-quinolin-4-yloxy}-phenyl)-2-nitro-benzenesulfonamide]
IC50 (indicated cell line; [8]): ≤ 12.5 µM
IC50 (indicated cell line; [9]): ≤ 12.5 µM
IC50 (indicated cell line; [10]): ≤ 12.5 µM
IC50 (Hs578T [1]): ≤ 12.5 µM
IC50 (SF126 [2]): ≤ 12.5 µM
IC50 (U118 [3]): 12.5 to 50 µM
melting point: 136 to 138 °C
IC50 (Hs578T [4]): ≤ 10 µM
IC100 (A172): > 12.5 µM
IC100 (SF126 [5]): ≤ 12.5 µM
IC100 (U118 [6]): > 12.5 µM
IC50 (Hs578T [7]): ≤ 12.5 µM

COc1cc2c(Oc3ccc(NS(=O)(=O)c4ccccc4OC(F)(F)F)cc3F)ccnc2cc1OCCCN1CCCC(C)C1 (stereo not drawn) [Example 45, N-(3-Fluoro-4-{6-methoxy-7-[3-(3-methyl-piperidin-1-yl)-propoxy]-quinolin-4-yloxy}-phenyl)-2-trifluoromethoxy-benzenesulfonamide]
IC50 (indicated cell line; [8]): ≤ 12.5 µM
IC50 (indicated cell line; [9]): ≤ 12.5 µM
IC50 (indicated cell line; [10]): ≤ 12.5 µM
IC50 (Hs578T [1]): ≤ 12.5 µM
IC50 (SF126 [2]): ≤ 12.5 µM
IC50 (U118 [3]): ≤ 12.5 µM
melting point: 128 to 130 °C
IC50 (Hs578T [4]): ≤ 10 µM
IC100 (A172): > 12.5 µM
IC100 (SF126 [5]): ≤ 12.5 µM
IC100 (U118 [6]): ≤ 12.5 µM
IC50 (Hs578T [7]): ≤ 12.5 µM

COc1cc2c(Oc3ccc(NS(=O)(=O)c4ccc(F)c(F)c4F)cc3F)ccnc2cc1OCCCN1CCCC(C)C1 (stereo not drawn) [Example 49, 2,3,4-Trifluoro-N-(3-fluoro-4-{6-methoxy-7-[3-(3-methyl-piperidin-1-yl)-propoxy]-quinolin-4-yloxy}-phenyl)-benzenesulfonamide]
IC50 (indicated cell line; [8]): ≤ 12.5 µM
IC50 (indicated cell line; [9]): ≤ 12.5 µM
IC50 (indicated cell line; [10]): ≤ 12.5 µM
IC50 (Hs578T [1]): ≤ 12.5 µM
IC50 (SF126 [2]): ≤ 12.5 µM
IC50 (U118 [3]): ≤ 12.5 µM
melting point: 134 to 136 °C
IC50 (Hs578T [4]): 10 to 25 µM
IC100 (A172): > 12.5 µM
IC100 (SF126 [5]): > 12.5 µM
IC100 (U118 [6]): > 12.5 µM
IC50 (Hs578T [7]): ≤ 12.5 µM

COc1cc2c(Oc3ccc(NS(=O)(=O)c4c(Cl)cccc4Cl)cc3F)ccnc2cc1OCCCN1CCCC(C)C1 (stereo not drawn) [Example 51, 2,6-Dichloro-N-(3-fluoro-4-{6-methoxy-7-[3-(3-methyl-piperidin-1-yl)-propoxy]-quinolin-4-yloxy}-phenyl)-benzenesulfonamide]
IC50 (indicated cell line; [8]): ≤ 12.5 µM
IC50 (indicated cell line; [9]): ≤ 12.5 µM
IC50 (indicated cell line; [10]): ≤ 12.5 µM
IC50 (Hs578T [1]): ≤ 12.5 µM
IC50 (SF126 [2]): ≤ 12.5 µM
IC50 (U118 [3]): ≤ 12.5 µM
melting point: 119 to 121 °C
IC50 (Hs578T [4]): ≤ 10 µM
IC100 (A172): > 12.5 µM
IC100 (SF126 [5]): ≤ 12.5 µM
IC100 (U118 [6]): ≤ 12.5 µM
IC50 (Hs578T [7]): ≤ 12.5 µM

COc1cc2c(Oc3ccc(NS(=O)(=O)c4cccc(Cl)c4F)cc3F)ccnc2cc1OCCCN1CCCC(C)C1 (stereo not drawn) [Example 54, 3-Chloro-2-fluoro-N-(3-fluoro-4-{6-methoxy-7-[3-(3-methyl-piperidin-1-yl)-propoxy]-quinolin-4-yloxy}-phenyl)-benzenesulfonamide]
IC50 (indicated cell line; [8]): ≤ 12.5 µM
IC50 (indicated cell line; [9]): ≤ 12.5 µM
IC50 (indicated cell line; [10]): ≤ 12.5 µM
IC50 (Hs578T [1]): ≤ 12.5 µM
IC50 (SF126 [2]): 12.5 to 50 µM
IC50 (U118 [3]): ≤ 12.5 µM
melting point: 125 to 127 °C
IC50 (Hs578T [4]): 10 to 25 µM
IC100 (A172): > 12.5 µM
IC100 (SF126 [5]): ≤ 12.5 µM
IC100 (U118 [6]): > 12.5 µM
IC50 (Hs578T [7]): ≤ 12.5 µM

COc1cc2c(Oc3ccc(NS(=O)(=O)c4ccccc4OC(F)(F)F)cc3F)ccnc2cc1OCCCN1CCCCC1 [Example 78, N-{3-Fluoro-4-[6-methoxy-7-(3-piperidin-1-yl-propoxy)-quinolin-4-yloxy]-phenyl}-2-trifluoromethoxy-benzenesulfonamide]
IC50 (indicated cell line; [8]): ≤ 12.5 µM
IC50 (indicated cell line; [9]): ≤ 12.5 µM
IC50 (indicated cell line; [10]): ≤ 12.5 µM
IC50 (Hs578T [1]): ≤ 12.5 µM
IC50 (SF126 [2]): ≤ 12.5 µM
IC50 (U118 [3]): ≤ 12.5 µM
melting point: 156 to 158 °C
IC50 (Hs578T [4]): ≤ 10 µM
IC100 (A172): > 12.5 µM
IC100 (SF126 [5]): ≤ 12.5 µM
IC100 (U118 [6]): > 12.5 µM
IC50 (Hs578T [7]): ≤ 12.5 µM

COc1cc2c(Oc3ccc(NS(=O)(=O)c4c(Cl)cccc4Cl)cc3F)ccnc2cc1OCCN1CCOCC1 [Example 104, 2,6-Dichloro-N-{3-fluoro-4-[6-methoxy-7-(2-morpholin-4-yl-ethoxy)-quinolin-4-yloxy]-phenyl}-benzenesulfonamide]
IC50 (indicated cell line; [8]): 12.5 to 50 µM
IC50 (indicated cell line; [9]): ≤ 12.5 µM
IC50 (indicated cell line; [10]): ≤ 12.5 µM
IC50 (Hs578T [1]): ≤ 12.5 µM
IC50 (SF126 [2]): 12.5 to 50 µM
IC50 (U118 [3]): 12.5 to 50 µM
melting point: 210 to 211 °C
IC50 (Hs578T [4]): 10 to 25 µM
IC100 (A172): > 12.5 µM
IC100 (SF126 [5]): > 12.5 µM
IC100 (U118 [6]): > 12.5 µM
IC50 (Hs578T [7]): ≤ 12.5 µM

COc1cc2c(Oc3ccc(NS(=O)(=O)c4cc(F)ccc4F)cc3Cl)ccnc2cc1OCCCN1CCN(C)CC1 [Example 112, N-(3-Chloro-4-{6-methoxy-7-[3-(4-methyl-piperazin-1-yl)-propoxy]-quinolin-4-yloxy}-phenyl)-2,5-difluoro-benzenesulfonamide]
IC50 (indicated cell line; [8]): ≤ 12.5 µM
IC50 (indicated cell line; [9]): ≤ 12.5 µM
IC50 (indicated cell line; [10]): ≤ 12.5 µM
IC50 (Hs578T [1]): ≤ 12.5 µM
IC50 (SF126 [2]): ≤ 12.5 µM
IC50 (U118 [3]): ≤ 12.5 µM
melting point: 118 to 121 °C
IC50 (Hs578T [4]): ≤ 10 µM
IC100 (A172): ≤ 12.5 µM
IC100 (SF126 [5]): ≤ 12.5 µM
IC100 (U118 [6]): ≤ 12.5 µM
IC50 (Hs578T [7]): ≤ 12.5 µM
